Experimental data taken from ChEMBL document CHEMBL1909046, “DrugMatrix in vitro pharmacology data”.

Assays:
[1] = biological target: C-C chemokine receptor type 2 (Homo sapiens, UniProt P41597); format: cell membranes, CHO-K1, Membrane; conditions: cho-k1; note: in other assays of this panel Not Active means under 50% inhibition at 10 µM
Insulin receptor = Insulin receptor (Rattus norvegicus, UniProt P15127); format: cell membranes, Wistar, Liver, Membrane; note: in other assays of this panel Not Active means under 50% inhibition at 10 µM
[2] = DRUGMATRIX: Nicotinic Acetylcholine radioligand binding (ligand: [125I] Epibatidine); format: cell membranes, Membrane; conditions: imr-32; Not Active = under 50% inhibition at 10 µM
[3] = biological target: T1, C-X-C chemokine receptor type 2 (Homo sapiens, UniProt P25025); format: cell membranes, Membrane; conditions: cho-k1; note: in other assays of this panel Not Active means under 50% inhibition at 10 µM
T1 sequence (P25025 whole entry): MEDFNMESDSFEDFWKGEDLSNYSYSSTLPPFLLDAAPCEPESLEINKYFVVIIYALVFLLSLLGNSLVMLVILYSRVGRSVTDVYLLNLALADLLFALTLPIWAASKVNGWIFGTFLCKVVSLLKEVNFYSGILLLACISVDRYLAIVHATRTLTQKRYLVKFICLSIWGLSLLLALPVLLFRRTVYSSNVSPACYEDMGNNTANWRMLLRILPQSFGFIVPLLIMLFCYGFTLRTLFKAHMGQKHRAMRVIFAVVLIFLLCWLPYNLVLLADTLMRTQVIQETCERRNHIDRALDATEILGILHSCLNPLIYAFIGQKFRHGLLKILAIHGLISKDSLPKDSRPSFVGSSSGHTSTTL

[4] = DRUGMATRIX: Glutamate, AMPA radioligand binding (ligand: [3H] AMPA); format: cell membranes, Rattus norvegicus, Wistar, Cerebral cortex, Membrane; conditions: Not Active = under 50% inhibition at 10 µM
Melanocortin receptor 4 = Melanocortin receptor 4 (Homo sapiens, UniProt P32245); format: cell membranes, Membrane; conditions: hek293; note: in other assays of this panel Not Active means under 50% inhibition at 10 µM
[5] = biological target: Epidermal growth factor receptor (Homo sapiens, UniProt P00533); test: DRUGMATRIX: Protein Tyrosine Kinase, EGF Receptor enzyme inhibition (substrate: Poly(Glu:Tyr)); format: cell-based, Insect cells; conditions: insect cells; Not Active = under 50% inhibition at 10 µM
[6] = DRUGMATRIX: Glutamate, NMDA, Agonism radioligand binding (ligand: [3H] CGP-39653); format: cell membranes, Rattus norvegicus, Wistar, Cerebral cortex, Membrane; conditions: Not Active = under 50% inhibition at 10 µM
[7] = biological target: T2, C-C chemokine receptor type 4 (Homo sapiens, UniProt P51679); format: cell membranes, Membrane; conditions: chem-1; note: in other assays of this panel Not Active means under 50% inhibition at 10 µM
T2 sequence (P51679 whole entry): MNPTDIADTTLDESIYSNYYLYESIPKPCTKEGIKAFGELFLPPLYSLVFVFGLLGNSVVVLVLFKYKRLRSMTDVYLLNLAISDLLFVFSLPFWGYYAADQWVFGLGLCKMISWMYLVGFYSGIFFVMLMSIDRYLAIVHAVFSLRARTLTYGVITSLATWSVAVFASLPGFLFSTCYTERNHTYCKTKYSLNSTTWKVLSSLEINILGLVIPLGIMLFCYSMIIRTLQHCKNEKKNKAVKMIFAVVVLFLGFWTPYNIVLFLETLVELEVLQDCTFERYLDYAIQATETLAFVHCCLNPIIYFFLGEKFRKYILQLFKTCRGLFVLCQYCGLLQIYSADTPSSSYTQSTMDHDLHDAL

[8] = biological target: Delta-type opioid receptor (Homo sapiens, UniProt P41143); format: cell membranes, HEK293, Membrane; conditions: hek293; note: in other assays of this panel Not Active means under 50% inhibition at 10 µM
Acetylcholinesterase = Acetylcholinesterase (Homo sapiens, UniProt P22303); test: DRUGMATRIX: Acetylcholinesterase enzyme inhibition (substrate: acetylthiocholine); format: cell-based, HEK293; conditions: hek293; Not Active = under 50% inhibition at 10 µM
Cannabinoid receptor 1 = Cannabinoid receptor 1 (Homo sapiens, UniProt P21554); format: cell membranes, Membrane; conditions: chem-1; note: in other assays of this panel Not Active means under 50% inhibition at 10 µM
[9] = biological target: 5-hydroxytryptamine receptor 2B (Homo sapiens, UniProt P41595); format: cell membranes, CHO-K1, Membrane; conditions: cho-k1; note: in other assays of this panel Not Active means under 50% inhibition at 10 µM
[10] = biological target: Tyrosine-protein kinase Lck (Homo sapiens, UniProt P06239); test: DRUGMATRIX: Protein Tyrosine Kinase, LCK enzyme inhibition (substrate: Poly(Glu:Tyr)); format: cell-based, Insect cells; conditions: insect cells; Not Active = under 50% inhibition at 10 µM
[11] = biological target: T3, Muscarinic acetylcholine receptor M2 (Homo sapiens, UniProt P08172); format: cell membranes, CHO-K1, Membrane; conditions: cho-k1; note: in other assays of this panel Not Active means under 50% inhibition at 10 µM
T3 sequence (P08172 whole entry): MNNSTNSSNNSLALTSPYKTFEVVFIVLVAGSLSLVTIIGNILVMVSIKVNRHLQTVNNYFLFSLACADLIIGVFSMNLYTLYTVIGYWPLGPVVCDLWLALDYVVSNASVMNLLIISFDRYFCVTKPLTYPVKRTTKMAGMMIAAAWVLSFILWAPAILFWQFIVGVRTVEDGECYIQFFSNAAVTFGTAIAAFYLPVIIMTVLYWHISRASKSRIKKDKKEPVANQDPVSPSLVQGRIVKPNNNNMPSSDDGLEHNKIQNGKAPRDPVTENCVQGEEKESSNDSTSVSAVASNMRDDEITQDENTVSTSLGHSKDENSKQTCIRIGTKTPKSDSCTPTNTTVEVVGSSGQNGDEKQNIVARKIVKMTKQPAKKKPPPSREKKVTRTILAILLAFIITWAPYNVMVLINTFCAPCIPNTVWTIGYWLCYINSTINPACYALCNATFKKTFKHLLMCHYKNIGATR

[12] = biological target: 5-hydroxytryptamine receptor 6 (Homo sapiens, UniProt P50406); format: cell membranes, HeLa, Membrane; conditions: hela; note: in other assays of this panel Not Active means under 50% inhibition at 10 µM
[13] = biological target: Protein phosphatase 3 catalytic subunit alpha (Homo sapiens, UniProt Q08209); set-up: species or system Escherichia coli
Vasopressin V1a receptor = Vasopressin V1a receptor (Homo sapiens, UniProt P37288); format: cell membranes, Membrane; conditions: hek293; note: in other assays of this panel Not Active means under 50% inhibition at 10 µM
Thromboxane-A synthase = biological target: T4, Thromboxane-A synthase (Homo sapiens, UniProt P24557); test: biochemical; format: tissue-based, Platelet; conditions: platelet
T4 sequence (P24557 whole entry): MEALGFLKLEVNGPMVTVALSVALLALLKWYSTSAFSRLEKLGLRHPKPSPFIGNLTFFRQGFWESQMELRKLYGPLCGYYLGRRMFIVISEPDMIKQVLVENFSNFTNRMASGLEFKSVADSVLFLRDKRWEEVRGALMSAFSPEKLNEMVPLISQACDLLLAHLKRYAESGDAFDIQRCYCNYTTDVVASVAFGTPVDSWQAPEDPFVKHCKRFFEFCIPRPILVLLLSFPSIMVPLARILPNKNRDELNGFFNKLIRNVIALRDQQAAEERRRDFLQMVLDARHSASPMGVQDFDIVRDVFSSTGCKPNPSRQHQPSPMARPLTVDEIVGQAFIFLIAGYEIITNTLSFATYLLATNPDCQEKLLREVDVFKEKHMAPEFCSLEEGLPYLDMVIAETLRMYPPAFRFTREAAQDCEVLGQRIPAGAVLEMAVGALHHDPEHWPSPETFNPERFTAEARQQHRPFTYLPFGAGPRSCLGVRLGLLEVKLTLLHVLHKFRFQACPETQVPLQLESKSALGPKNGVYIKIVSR

Delta-type opioid receptor, sequence (P41143 whole entry): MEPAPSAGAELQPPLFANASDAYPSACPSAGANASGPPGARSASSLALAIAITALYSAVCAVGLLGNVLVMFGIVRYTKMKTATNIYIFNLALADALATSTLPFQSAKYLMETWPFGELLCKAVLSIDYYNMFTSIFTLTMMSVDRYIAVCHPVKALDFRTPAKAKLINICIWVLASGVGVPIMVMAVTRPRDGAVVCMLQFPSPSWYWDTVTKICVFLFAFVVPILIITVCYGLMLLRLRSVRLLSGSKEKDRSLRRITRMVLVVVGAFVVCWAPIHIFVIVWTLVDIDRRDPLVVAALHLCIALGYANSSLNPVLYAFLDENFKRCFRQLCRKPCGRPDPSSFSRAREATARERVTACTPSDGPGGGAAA
Melanocortin receptor 4, sequence (P32245 whole entry): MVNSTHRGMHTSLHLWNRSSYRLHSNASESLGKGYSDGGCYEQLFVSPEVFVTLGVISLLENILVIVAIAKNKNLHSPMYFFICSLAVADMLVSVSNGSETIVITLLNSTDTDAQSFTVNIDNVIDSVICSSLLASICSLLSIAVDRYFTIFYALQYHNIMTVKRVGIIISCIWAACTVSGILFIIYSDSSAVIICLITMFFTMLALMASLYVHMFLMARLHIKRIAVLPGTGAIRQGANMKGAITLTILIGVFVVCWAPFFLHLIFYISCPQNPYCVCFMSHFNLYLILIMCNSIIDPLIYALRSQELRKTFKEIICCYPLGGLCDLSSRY
Cannabinoid receptor 1, sequence (P21554 whole entry): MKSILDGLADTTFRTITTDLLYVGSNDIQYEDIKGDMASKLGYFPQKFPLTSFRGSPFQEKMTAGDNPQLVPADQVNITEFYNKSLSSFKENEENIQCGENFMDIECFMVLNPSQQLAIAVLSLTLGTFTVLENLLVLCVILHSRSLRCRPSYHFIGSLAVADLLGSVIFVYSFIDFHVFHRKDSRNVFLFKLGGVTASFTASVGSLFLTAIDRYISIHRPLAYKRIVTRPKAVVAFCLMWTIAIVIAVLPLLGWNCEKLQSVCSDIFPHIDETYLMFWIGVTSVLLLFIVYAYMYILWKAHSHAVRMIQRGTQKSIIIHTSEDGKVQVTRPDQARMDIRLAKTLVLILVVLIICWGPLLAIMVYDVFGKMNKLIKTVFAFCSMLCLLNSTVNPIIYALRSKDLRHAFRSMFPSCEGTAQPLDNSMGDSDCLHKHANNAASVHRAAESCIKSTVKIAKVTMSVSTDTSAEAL
Acetylcholinesterase, sequence (P22303 whole entry): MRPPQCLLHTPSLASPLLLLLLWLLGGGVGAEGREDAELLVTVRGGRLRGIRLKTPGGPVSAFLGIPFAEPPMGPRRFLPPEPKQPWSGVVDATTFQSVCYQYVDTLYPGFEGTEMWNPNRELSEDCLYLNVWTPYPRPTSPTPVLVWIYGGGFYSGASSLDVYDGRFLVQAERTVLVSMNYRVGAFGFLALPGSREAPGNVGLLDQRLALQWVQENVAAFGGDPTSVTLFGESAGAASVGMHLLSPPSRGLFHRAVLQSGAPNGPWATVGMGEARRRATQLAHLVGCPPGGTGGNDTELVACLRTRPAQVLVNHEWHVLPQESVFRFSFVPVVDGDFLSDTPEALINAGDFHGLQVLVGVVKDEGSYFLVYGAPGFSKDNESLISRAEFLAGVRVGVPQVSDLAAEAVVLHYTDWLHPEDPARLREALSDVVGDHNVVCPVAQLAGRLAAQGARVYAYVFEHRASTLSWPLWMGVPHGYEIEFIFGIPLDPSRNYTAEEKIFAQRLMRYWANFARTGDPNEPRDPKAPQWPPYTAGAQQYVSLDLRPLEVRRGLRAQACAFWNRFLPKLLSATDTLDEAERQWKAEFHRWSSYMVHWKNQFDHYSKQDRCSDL
Insulin receptor, sequence (P15127 27-759 limits assumed): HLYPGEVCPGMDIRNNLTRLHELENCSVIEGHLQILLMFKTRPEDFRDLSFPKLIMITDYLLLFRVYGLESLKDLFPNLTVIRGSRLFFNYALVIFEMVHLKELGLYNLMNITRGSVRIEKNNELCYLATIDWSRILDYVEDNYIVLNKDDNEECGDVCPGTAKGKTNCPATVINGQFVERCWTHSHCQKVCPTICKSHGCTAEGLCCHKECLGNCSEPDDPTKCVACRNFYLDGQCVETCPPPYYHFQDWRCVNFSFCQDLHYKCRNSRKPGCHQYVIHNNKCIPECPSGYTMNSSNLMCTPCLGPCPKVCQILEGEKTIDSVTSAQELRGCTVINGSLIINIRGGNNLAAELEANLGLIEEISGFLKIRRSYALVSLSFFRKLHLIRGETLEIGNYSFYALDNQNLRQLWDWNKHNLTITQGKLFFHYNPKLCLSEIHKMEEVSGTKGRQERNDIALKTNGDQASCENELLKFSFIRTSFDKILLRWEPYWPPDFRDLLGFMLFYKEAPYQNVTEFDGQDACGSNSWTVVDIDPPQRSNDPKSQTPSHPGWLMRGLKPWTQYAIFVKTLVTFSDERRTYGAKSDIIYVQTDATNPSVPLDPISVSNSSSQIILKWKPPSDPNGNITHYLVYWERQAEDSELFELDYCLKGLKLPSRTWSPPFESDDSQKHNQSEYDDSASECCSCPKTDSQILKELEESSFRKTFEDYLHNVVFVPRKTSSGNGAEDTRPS
Insulin receptor, sequence (P15127 764-1383 limits assumed): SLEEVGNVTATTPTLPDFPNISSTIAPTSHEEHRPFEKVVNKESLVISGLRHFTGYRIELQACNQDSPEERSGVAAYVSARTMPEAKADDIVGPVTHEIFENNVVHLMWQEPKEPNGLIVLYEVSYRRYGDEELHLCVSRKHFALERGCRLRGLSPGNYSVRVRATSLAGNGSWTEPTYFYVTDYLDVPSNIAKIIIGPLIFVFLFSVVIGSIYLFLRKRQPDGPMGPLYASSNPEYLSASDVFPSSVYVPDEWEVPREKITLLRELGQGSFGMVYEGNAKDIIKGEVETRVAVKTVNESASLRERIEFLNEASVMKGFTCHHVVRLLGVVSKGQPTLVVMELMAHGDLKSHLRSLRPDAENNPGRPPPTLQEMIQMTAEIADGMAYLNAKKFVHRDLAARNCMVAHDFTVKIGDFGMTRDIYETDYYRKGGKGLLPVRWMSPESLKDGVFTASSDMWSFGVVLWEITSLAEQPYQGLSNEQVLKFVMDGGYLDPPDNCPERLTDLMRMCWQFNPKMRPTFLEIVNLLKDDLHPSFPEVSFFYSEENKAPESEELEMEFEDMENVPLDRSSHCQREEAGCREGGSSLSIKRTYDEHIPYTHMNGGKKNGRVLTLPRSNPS
Tyrosine-protein kinase Lck, sequence (P06239 whole entry): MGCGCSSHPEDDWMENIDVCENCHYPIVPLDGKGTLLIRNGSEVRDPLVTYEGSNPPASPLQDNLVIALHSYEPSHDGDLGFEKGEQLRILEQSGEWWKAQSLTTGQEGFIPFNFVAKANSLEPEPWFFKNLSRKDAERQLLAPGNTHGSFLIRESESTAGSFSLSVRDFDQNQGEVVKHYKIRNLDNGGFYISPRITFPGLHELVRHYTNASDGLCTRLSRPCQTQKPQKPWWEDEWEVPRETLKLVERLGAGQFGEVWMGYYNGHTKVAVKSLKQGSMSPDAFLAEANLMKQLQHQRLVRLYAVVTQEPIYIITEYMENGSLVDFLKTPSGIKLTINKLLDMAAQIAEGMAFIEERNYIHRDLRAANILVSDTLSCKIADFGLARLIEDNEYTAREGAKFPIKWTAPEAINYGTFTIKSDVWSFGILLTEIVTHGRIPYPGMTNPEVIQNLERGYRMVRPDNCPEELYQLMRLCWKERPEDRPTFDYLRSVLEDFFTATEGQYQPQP
5-hydroxytryptamine receptor 2B, sequence (P41595 whole entry): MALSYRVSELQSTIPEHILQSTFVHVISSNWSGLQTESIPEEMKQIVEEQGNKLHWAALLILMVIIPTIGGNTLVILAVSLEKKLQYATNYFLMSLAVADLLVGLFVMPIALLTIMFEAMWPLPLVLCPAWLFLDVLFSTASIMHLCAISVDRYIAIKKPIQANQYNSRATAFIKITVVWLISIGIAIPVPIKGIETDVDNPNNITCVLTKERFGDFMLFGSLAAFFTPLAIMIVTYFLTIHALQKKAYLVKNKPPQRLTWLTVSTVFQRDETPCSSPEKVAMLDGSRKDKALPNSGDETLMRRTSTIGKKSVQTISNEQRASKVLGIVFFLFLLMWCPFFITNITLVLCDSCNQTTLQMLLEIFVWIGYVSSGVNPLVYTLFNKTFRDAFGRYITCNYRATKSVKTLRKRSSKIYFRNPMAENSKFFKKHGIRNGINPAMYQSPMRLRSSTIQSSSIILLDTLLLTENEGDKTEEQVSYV
C-C chemokine receptor type 2, sequence (P41597 whole entry): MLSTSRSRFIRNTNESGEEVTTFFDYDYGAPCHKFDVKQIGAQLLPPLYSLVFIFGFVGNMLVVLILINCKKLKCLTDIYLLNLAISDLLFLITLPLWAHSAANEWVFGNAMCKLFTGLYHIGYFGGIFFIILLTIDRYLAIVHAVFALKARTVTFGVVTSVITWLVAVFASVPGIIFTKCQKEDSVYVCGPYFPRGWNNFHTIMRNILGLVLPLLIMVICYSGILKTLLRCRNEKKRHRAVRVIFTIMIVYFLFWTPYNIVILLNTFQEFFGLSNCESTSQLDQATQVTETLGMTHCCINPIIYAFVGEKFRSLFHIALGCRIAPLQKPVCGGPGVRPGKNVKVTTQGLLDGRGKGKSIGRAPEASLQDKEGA
5-hydroxytryptamine receptor 6, sequence (P50406 whole entry): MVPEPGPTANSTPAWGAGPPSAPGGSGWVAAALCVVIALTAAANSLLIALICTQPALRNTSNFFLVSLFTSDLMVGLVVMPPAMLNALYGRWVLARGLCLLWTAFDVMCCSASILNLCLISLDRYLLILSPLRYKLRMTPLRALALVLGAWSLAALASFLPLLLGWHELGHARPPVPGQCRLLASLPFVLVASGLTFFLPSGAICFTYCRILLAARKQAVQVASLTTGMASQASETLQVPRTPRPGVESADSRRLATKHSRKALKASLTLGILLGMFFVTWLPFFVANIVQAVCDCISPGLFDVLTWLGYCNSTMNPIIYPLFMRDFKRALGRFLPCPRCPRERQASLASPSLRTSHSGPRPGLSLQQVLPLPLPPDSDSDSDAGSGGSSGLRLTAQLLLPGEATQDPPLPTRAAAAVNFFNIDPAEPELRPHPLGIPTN

CC(=O)[C@H]1CC[C@H]2[C@@H]3CCC4=CC(=O)CC[C@]4(C)[C@H]3CC[C@]12C [PROGESTERONE]
Not Active: IC50 [1] | IC50 (Insulin receptor) | IC50 [2] | Ki [2] | IC50 [3] | IC50 [4] | Ki [4] | IC50 (Melanocortin receptor 4) | IC50 [5] | IC50 [6] | Ki [6] | IC50 [7] | IC50 [8] | IC50 (Acetylcholinesterase) | IC50 (Cannabinoid receptor 1) | IC50 [9] | IC50 [10] | IC50 [11] | IC50 [12] | IC50 [13] | IC50 (Vasopressin V1a receptor) | IC50 (Thromboxane-A synthase)

NC(=O)c1ncn([C@@H]2O[C@H](CO)[C@@H](O)[C@H]2O)n1 [RIBAVIRIN]
Not Active: IC50 [1] | IC50 (Insulin receptor) | IC50 [2] | Ki [2] | IC50 [3] | IC50 [4] | Ki [4] | IC50 (Melanocortin receptor 4) | IC50 [5] | IC50 [6] | Ki [6] | IC50 [7] | IC50 [8] | IC50 (Acetylcholinesterase) | IC50 (Cannabinoid receptor 1) | IC50 [9] | IC50 [10] | IC50 [11] | IC50 [12] | IC50 [13] | IC50 (Vasopressin V1a receptor) | IC50 (Thromboxane-A synthase)

O=[N+]([O-])c1cc([As](=O)(O)O)ccc1O [ROXARSONE]
Not Active: IC50 [1] | Ki [1] | IC50 (Insulin receptor) | Ki (Insulin receptor) | IC50 [2] | Ki [2] | IC50 [3] | Ki [3] | IC50 [4] | Ki [4] | IC50 (Melanocortin receptor 4) | Ki (Melanocortin receptor 4) | IC50 [5] | Ki [5] | IC50 [6] | Ki [6] | IC50 [7] | Ki [7] | IC50 [8] | Ki [8] | IC50 (Acetylcholinesterase) | Ki (Acetylcholinesterase) | IC50 (Cannabinoid receptor 1) | Ki (Cannabinoid receptor 1) | IC50 [9] | Ki [9] | IC50 [10] | Ki [10] | IC50 [11] | Ki [11] | IC50 [12] | Ki [12] | IC50 [13] | Ki [13] | IC50 (Vasopressin V1a receptor) | Ki (Vasopressin V1a receptor) | IC50 (Thromboxane-A synthase) | Ki (Thromboxane-A synthase)

CC[C@H]1OC(=O)[C@H](C)[C@@H](O[C@H]2C[C@@](C)(OC)[C@@H](O)[C@H](C)O2)[C@H](C)[C@@H](O[C@@H]2O[C@H](C)C[C@H](N(C)C)[C@H]2O)[C@](C)(O)C[C@@H](C)/C(=N\OCOCCOC)[C@H](C)[C@@H](O)[C@]1(C)O [ROXITHROMYCIN]
Not Active: IC50 [1] | IC50 (Insulin receptor) | IC50 [2] | Ki [2] | IC50 [3] | IC50 [4] | Ki [4] | IC50 (Melanocortin receptor 4) | IC50 [5] | IC50 [6] | Ki [6] | IC50 [7] | IC50 [8] | IC50 (Acetylcholinesterase) | IC50 (Cannabinoid receptor 1) | IC50 [9] | IC50 [10] | IC50 [11] | IC50 [12] | IC50 [13] | IC50 (Vasopressin V1a receptor) | IC50 (Thromboxane-A synthase)

NC(=O)c1ccccc1O [SALICYLAMIDE]
Not Active: IC50 [1] | IC50 (Insulin receptor) | IC50 [2] | Ki [2] | IC50 [3] | IC50 [4] | Ki [4] | IC50 (Melanocortin receptor 4) | IC50 [5] | IC50 [6] | Ki [6] | IC50 [7] | IC50 [8] | IC50 (Acetylcholinesterase) | IC50 (Cannabinoid receptor 1) | IC50 [9] | IC50 [10] | IC50 [11] | IC50 [12] | IC50 [13] | IC50 (Vasopressin V1a receptor) | IC50 (Thromboxane-A synthase)

Cc1ncc([N+](=O)[O-])n1CC(C)O (stereo not drawn) [SECNIDAZOLE]
Not Active: IC50 [1] | IC50 (Insulin receptor) | IC50 [2] | Ki [2] | IC50 [3] | IC50 [4] | Ki [4] | IC50 (Melanocortin receptor 4) | IC50 [5] | IC50 [6] | Ki [6] | IC50 [7] | IC50 [8] | IC50 (Acetylcholinesterase) | IC50 (Cannabinoid receptor 1) | IC50 [9] | IC50 [10] | IC50 [11] | IC50 [12] | IC50 [13] | IC50 (Vasopressin V1a receptor) | IC50 (Thromboxane-A synthase)
